Patent US9840467B2, “Arylhydrazides containing a 2-pyridone moiety as selective antibacterial agents” (ABAC THERAPEUTICS, S.L., priority 2014, dated 2017)
In brackets after ≈: the same amount, converted by molar mass. Like-named read-outs stand apart in the source and are kept apart here.

Assays:
A. baumannii = experiment: MIC, CLSI microtiter dilution, A. baumannii; format: cell-based, Acinetobacter baumannii
Experimental: (§1) The products of the present invention were tested for their activity against A. baumannii as well as against the following bacteria: Staphylococcus aureus (S. aureus), Streptococcus pneumoniae (S. pneumoniae), Enterococcus faecium (E. faecium), Pseudomonas aeruginosa (P. aeruginosa), Klebsiella pneumoniae (K. pneumoniae.), Enterobacter aerogenes (E. aerogenes) and Escherichia coli (E. coli).
(§2) Minimal inhibitory concentrations (MICs) were determined using a standard microtiter dilution method, according to the Clinical and Laboratory Standards Institute (CLSI) procedures, in particular according to M07-A9: “Methods for Dilution Antimicrobial Susceptibility Tests for Bacteria That Grow Aerobically; Approved Standard—Ninth Edition”.
(§3) Briefly, compounds were dissolved with dimethyl sulfoxide (DMSO) at 12.8 mg/mL. Serial two-fold dilutions of compounds were performed in DMSO and 1 μl of each dilution were transferred into microtiter culture plates, followed by 100 μl of inoculated culture media to give a final microorganism concentration of 5×10^5 colony-forming units/mL. Plates were incubated at 37° C. for 24 hours and MICs determined as the lowest compound concentration that inhibited growth. Media used in determinations were Cation adjusted Mueller-Hinton Broth for all the microorganisms except for S. pneumoniae and E. faecium whose culture media were supplemented with 2.5% of lysed horse blood. Incubations were performed at air atmosphere except S. pneumoniae cultures that were incubated with 5% CO2 atmosphere.

S. aureus = experiment: MIC, CLSI microtiter dilution, S. aureus; format: cell-based, Staphylococcus aureus
Experimental: as §1, §2, §3

S. pneumoniae = experiment: MIC, CLSI microtiter dilution, S. pneumoniae; format: cell-based, Streptococcus pneumoniae
Experimental: as §1, §2, §3

E. faecium = experiment: MIC, CLSI microtiter dilution, E. faecium; format: cell-based, Enterococcus faecium
Experimental: as §1, §2, §3

P. aeruginosa = experiment: MIC, CLSI microtiter dilution, P. aeruginosa; format: cell-based, Pseudomonas aeruginosa
Experimental: as §1, §2, §3

K. pneumoniae = experiment: MIC, CLSI microtiter dilution, K. pneumoniae; format: cell-based, Klebsiella pneumoniae
Experimental: as §1, §2, §3

E. aerogenes = experiment: MIC, CLSI microtiter dilution, E. aerogenes; format: cell-based, Enterobacter aerogenes
Experimental: as §1, §2, §3

E. coli = experiment: MIC, CLSI microtiter dilution, E. coli; format: cell-based, Escherichia coli
Experimental: as §1, §2, §3

[1] = Acinetobacter baumannii, A. baumannii, 37° C., 24 hours, Cation adjusted Mueller-Hinton Broth, read-out: MIC
[2] = Staphylococcus aureus, S. aureus, 37° C., 24 hours, Cation adjusted Mueller-Hinton Broth, read-out: MIC
[3] = Streptococcus pneumoniae, S. pneumoniae, 37° C., 24 hours, 2.5% lysed horse blood, 5% CO2, read-out: MIC
[4] = Enterococcus faecium, E. faecium, 37° C., 24 hours, 2.5% lysed horse blood, read-out: MIC
[5] = Pseudomonas aeruginosa, P. aeruginosa, 37° C., 24 hours, Cation adjusted Mueller-Hinton Broth, read-out: MIC
[6] = Klebsiella pneumoniae, K. pneumoniae, 37° C., 24 hours, Cation adjusted Mueller-Hinton Broth, read-out: MIC
[7] = Klebsiella aerogenes, E. aerogenes, 37° C., 24 hours, Cation adjusted Mueller-Hinton Broth, read-out: MIC
[8] = Escherichia coli, E. coli, 37° C., 24 hours, Cation adjusted Mueller-Hinton Broth, read-out: MIC

Molecule | MIC (A. baumannii; Acinetobacter baumannii, 24 h) | MIC (S. aureus; Staphylococcus aureus, 24 h) | MIC (S. pneumoniae; Streptococcus pneumoniae, 24 h) | MIC (E. faecium; Enterococcus faecium, 24 h) | MIC (P. aeruginosa; Pseudomonas aeruginosa, 24 h) | MIC (K. pneumoniae; Klebsiella pneumoniae, 24 h) | MIC (E. aerogenes; Klebsiella aerogenes, 24 h) | MIC (E. coli; Escherichia coli, 24 h) | MIC (A. baumannii; [1]) | MIC (S. aureus; [2]) | MIC (S. pneumoniae; [3]) | MIC (E. faecium; [4]) | MIC (P. aeruginosa; [5]) | MIC (K. pneumoniae; [6]) | MIC (E. aerogenes; [7]) | MIC (E. coli; [8]) | further results
Cn1cccc(C(=O)NNc2ccc(F)cc2)c1=O [Ex. 17, 1-Methyl-2-oxo-1,2-dihydropyridine-3-carboxylic acid N′-(4-fluorophenyl)-hydrazide] | 0.5 µg/mL (≈ 1.91 µM) | > 128 µg/mL | > 128 µg/mL | > 128 µg/mL | > 128 µg/mL | > 128 µg/mL | > 128 µg/mL | > 128 µg/mL | – | – | – | – | – | – | – | – | –
COCCn1c(C(=O)NNc2ccc(F)cc2)cccc1=O [Ex. 3, 1-(2-methoxyethyl)-6-oxo-1,6-dihydro-pyridine-2-carboxylic acid N′-(4-fluorophenyl)-hydrazide] | < 0.25 µg/mL | > 128 µg/mL | > 128 µg/mL | > 128 µg/mL | > 128 µg/mL | > 128 µg/mL | > 128 µg/mL | > 128 µg/mL | – | – | – | – | – | – | – | – | –
Cn1c(C(=O)NNc2c(F)cccc2F)cccc1=O [Ex. 13, 1-Methyl-6-oxo-1,6-dihydropyridine-2-carboxylic acid N′-(2,6-difluorophenyl)-hydrazide] | 0.5 µg/mL (≈ 1.79 µM) | > 128 µg/mL | > 128 µg/mL | > 128 µg/mL | > 128 µg/mL | > 128 µg/mL | > 128 µg/mL | > 128 µg/mL | – | – | – | – | – | – | – | – | –
CCn1cccc(C(=O)NNc2ccc(F)cc2)c1=O [Ex. 16, 1-Ethyl-2-oxo-1,2-dihydropyridine-3-carboxylic acid N′-(4-fluorophenyl)-hydrazide] | – | – | – | – | – | – | – | – | 0.5 µg/mL (≈ 1.82 µM) | > 128 µg/mL | > 128 µg/mL | > 128 µg/mL | > 128 µg/mL | > 128 µg/mL | > 128 µg/mL | > 128 µg/mL | –
CN(C)C(=O)Cn1c(C(=O)NNc2ccc(F)cc2)cccc1=O [Ex. 14, 1-(2-(Dimethylamino)-2-oxoethyl)-6-oxo-1,6-dihydropyridine-2-carboxylic acid N′-(4-fluorophenyl)-hydrazide] | 0.25 µg/mL (≈ 0.752 µM) | > 128 µg/mL | > 128 µg/mL | > 128 µg/mL | > 128 µg/mL | > 128 µg/mL | > 128 µg/mL | > 128 µg/mL | – | – | – | – | – | – | – | – | –
Cn1c(C(=O)NNc2ccc(F)cc2)cccc1=O [Ex. 1, 1-Methyl-6-oxo-1,6-dihydro-pyridine-2-carboxylic acid N′-(4-fluoro-phenyl)-hydrazide] | – | – | – | – | – | – | – | – | 0.5 µg/mL (≈ 1.91 µM) | > 128 µg/mL | > 128 µg/mL | > 128 µg/mL | > 128 µg/mL | > 128 µg/mL | > 128 µg/mL | 64 µg/mL (≈ 245 µM) | –
Cn1c(C(=O)NNc2ccc(F)cc2F)cccc1=O [Ex. 12, 1-Methyl-6-oxo-1,6-dihydropyridine-2-carboxylic acid N′-(2,4-difluorophenyl)-hydrazide] | 0.25 µg/mL (≈ 0.895 µM) | > 128 µg/mL | > 128 µg/mL | > 128 µg/mL | > 128 µg/mL | > 128 µg/mL | > 128 µg/mL | > 128 µg/mL | – | – | – | – | – | – | – | – | –
COc1cc(C(=O)NNc2ccc(F)cc2)n(C)c(=O)c1 [Ex. 21, 4-Methoxy-1-methyl-6-oxo-1,6-dihydropyridine-2-carboxylic acid N′-(4-fluorophenyl)-hydrazide] | – | – | – | – | – | – | – | – | 0.25 µg/mL (≈ 0.858 µM) | > 128 µg/mL | > 128 µg/mL | > 128 µg/mL | > 128 µg/mL | > 128 µg/mL | > 128 µg/mL | > 128 µg/mL | –
1-Cyclopropylmethyl-6-oxo-1,6-dihydro-pyridine-2-carboxylic acid N′-(4-fluorophenyl)-hydrazide [Ex. 6] | – | – | – | – | – | – | – | – | – | – | – | – | – | – | – | – | MIC (A. baumannii; A. baumannii, 37° C., 24 hours, Cation adjusted Mueller-Hinton Broth): <0.25 µg/mL; MIC (S. aureus; S. aureus, 37° C., 24 hours, Cation adjusted Mueller-Hinton Broth): >128 µg/mL; MIC (S. pneumoniae; S. pneumoniae, 37° C., 24 hours, 2.5% lysed horse blood, 5% CO2): >128 µg/mL; MIC (E. faecium; E. faecium, 37° C., 24 hours, 2.5% lysed horse blood): >128 µg/mL; MIC (P. aeruginosa; P. aeruginosa, 37° C., 24 hours, Cation adjusted Mueller-Hinton Broth): >128 µg/mL; MIC (K. pneumoniae; K. pneumoniae, 37° C., 24 hours, Cation adjusted Mueller-Hinton Broth): >128 µg/mL; MIC (E. aerogenes; E. aerogenes, 37° C., 24 hours, Cation adjusted Mueller-Hinton Broth): >128 µg/mL; MIC (E. coli; E. coli, 37° C., 24 hours, Cation adjusted Mueller-Hinton Broth): >128 µg/mL
Cn1c(C(=O)NNc2ccc(Cl)cc2)cccc1=O [Ex. 10, 1-Methyl-6-oxo-1,6-dihydropyridine-2-carboxylic acid N′-(4-chlorophenyl)-hydrazide] | 0.25 µg/mL (≈ 0.9 µM) | > 128 µg/mL | > 128 µg/mL | > 128 µg/mL | > 128 µg/mL | > 128 µg/mL | > 128 µg/mL | > 128 µg/mL | – | – | – | – | – | – | – | – | –
O=C(NNc1ccc(F)cc1)c1cccc(=O)n1C(F)F [Ex. 4, 1-Difluoromethyl-6-oxo-1,6-dihydro-pyridine-2-carboxylic acid N′-(4-fluorophenyl)-hydrazide] | – | – | – | – | – | – | – | – | 1 µg/mL (≈ 3.36 µM) | > 128 µg/mL | > 128 µg/mL | > 128 µg/mL | > 128 µg/mL | > 128 µg/mL | > 128 µg/mL | > 128 µg/mL | –
Cn1cc(C(=O)NNc2ccc(F)cc2)ccc1=O [Ex. 19, 1-Methyl-6-oxo-1,6-dihydropyridine-3-carboxylic acid N′-(4-fluorophenyl)-hydrazide] | – | – | – | – | – | – | – | – | 0.25 µg/mL (≈ 0.957 µM) | > 128 µg/mL | > 128 µg/mL | > 128 µg/mL | > 128 µg/mL | > 128 µg/mL | > 128 µg/mL | > 128 µg/mL | –
NC(=O)Cn1c(C(=O)NNc2ccc(F)cc2)cccc1=O [Ex. 15, 1-(2-Amino-2-oxoethyl)-6-oxo-1,6-dihydropyridine-2-carboxylic acid N′-(4-fluorophenyl)-hydrazide] | 0.5 µg/mL (≈ 1.64 µM) | > 128 µg/mL | > 128 µg/mL | > 128 µg/mL | > 128 µg/mL | > 128 µg/mL | > 128 µg/mL | > 128 µg/mL | – | – | – | – | – | – | – | – | –
C#CCn1c(C(=O)NNc2ccc(F)cc2)cccc1=O [Ex. 7, 1-(Prop-2-yn-1-yl)-6-oxo-1,6-dihydropyridine-2-carboxylic acid N′-(4-fluorophenyl)-hydrazide] | 0.25 µg/mL (≈ 0.876 µM) | > 128 µg/mL | > 128 µg/mL | > 128 µg/mL | > 128 µg/mL | > 128 µg/mL | > 128 µg/mL | > 128 µg/mL | – | – | – | – | – | – | – | – | –
O=C(NNc1ccc(F)cc1)c1cccc(=O)n1Cc1ccccc1 [Ex. 5, 1-Benzyl-6-oxo-1,6-dihydro-pyridine-2-carboxylic acid N′-(4-fluorophenyl)-hydrazide] | – | – | – | – | – | – | – | – | 0.25 µg/mL (≈ 0.741 µM) | > 128 µg/mL | > 128 µg/mL | > 128 µg/mL | > 128 µg/mL | > 128 µg/mL | > 128 µg/mL | > 128 µg/mL | –
CCn1c(C(=O)NNc2ccc(F)cc2)cccc1=O [Ex. 2, 1-Ethyl-6-oxo-1,6-dihydro-pyridine-2-carboxylic acid N′-(4-fluoro-phenyl)-hydrazide] | 1 µg/mL (≈ 3.63 µM) | > 128 µg/mL | > 128 µg/mL | > 128 µg/mL | > 128 µg/mL | > 128 µg/mL | > 128 µg/mL | > 128 µg/mL | – | – | – | – | – | – | – | – | –
Cc1ccc(NNC(=O)c2cccc(=O)n2C)cc1 [Ex. 11, 1-Methyl-6-oxo-1,6-dihydropyridine-2-carboxylic acid N′-(4-methylphenyl)-hydrazide] | 0.5 µg/mL (≈ 1.94 µM) | > 128 µg/mL | > 128 µg/mL | > 128 µg/mL | > 128 µg/mL | > 128 µg/mL | > 128 µg/mL | > 128 µg/mL | – | – | – | – | – | – | – | – | –
O=C(NNc1ccc(F)cc1)c1cccc(=O)n1CC(F)(F)F [Ex. 8, 6-Oxo-1-(2,2,2-trifluoroethyl)-1,6-dihydropyridine-2-carboxylic acid N′-(4-fluorophenyl)-hydrazide] | 0.25 µg/mL (≈ 0.759 µM) | > 128 µg/mL | > 128 µg/mL | > 128 µg/mL | > 128 µg/mL | > 128 µg/mL | > 128 µg/mL | > 128 µg/mL | – | – | – | – | – | – | – | – | –
